Article PMC9145754, “Novel Soloxolone Amides as Potent Anti-Glioblastoma Candidates: Design, Synthesis, In Silico Analysis and Biological Activities In Vitro and In Vivo” (Pharmaceuticals, 2022)

Columns and labels:
Neuro2a cells = test: MTT cytotoxicity assay, Neuro2a; type: cell-based, murine; settings: Mus musculus, N2a, 24 h, read-out: IC50, Neuroblastoma, Neuro2a
Protocol: To evaluate the antitumor activity of the synthesized soloxolone amides in brain tumor cells, the cytotoxicity of compounds 4–12, predicted as BBB-permeable (Figure 3), was further analyzed in human glioblastoma U87 and U118 cells, as well as human neuroblastoma KELLY and murine neuroblastoma Neuro2a cells.
The cells in the exponential growth phase were seeded in quadruplicate in 96-well plates at a density of 1 × 10^4 cells/well for HeLa, U87, U118, KELLY and Neuro2a cells; 1.5 × 10^4 cells/well for HuTu-80 cells; 2 × 10^4 cells/well for B16 cells; and 7 × 10^3 cells/well for hFF3 fibroblasts. Cells were incubated under standard conditions overnight followed by their treatment with the investigated compounds (1–20 µM) for 24 h. Then, 10 µL of MTT solution was added to the cells to a final concentration of 0.5 mg/mL and plates were placed under standard conditions for 3 h followed by an aspiration of MTT-containing medium and a dissolution of formazan crystals with 100 µL of DMSO. The absorbance of each well was read at test and reference wavelengths of 570 and 620 nm, respectively, on a Multiscan RC plate reader (Thermo LabSystems, Helsinki, Finland).

U118 cells = test: Mitochondrial membrane potential, JC-1; type: cell-based, human; settings: for percentage of U118 cells with collapsed ΔψM: 12 at 4 µM, JC-1, control 4.7%
Protocol: It is known that structural analogs of compound 12, such as SM, bardoxolone methyl and CDDO-Im, trigger the mitochondrial pathway of apoptosis in tumor cells, leading to significant dissipation of mitochondrial membrane potential (ΔψM). To evaluate the ability of 12 to affect ΔψM in glioblastoma cells, U118 cells were incubated with 12 (4 µM) for 6 and 24 h and stained with JC-1, a fluorescent probe accumulated either within highly polarized mitochondria emitting red fluorescence (JC-1 aggregates) or in cytoplasm, in the case of low ΔψM (JC-1 monomers, green fluorescence).
[…] were cultured in 6-well plates for 24 h, incubated overnight under standard conditions and treated with 12 at 4 μM for 6 and 24 h. Thereafter, the cells were harvested, resuspended at 10^6 cell/mL in JC-1-containing PBS (5 µg/mL) and incubated under standard conditions for 30 min followed by the washing of the cells with PBS and flow cytometry analysis. In total, 10,000 events were acquired for each sample.

U87 cells [1] = test: Mitochondrial membrane potential/apoptosis, MitoTracker Red and Annexin V; type: cell-based, human; settings: U87, 12 at 4 µM, control 5.7%
Protocol: In order to doublecheck the ΔψM-targeted effect of 12 and to assess the correlation between dissipation of ΔψM and induction of apoptosis in triterpenoid-treated glioblastoma cells, U87 cells were incubated with 12 at 4 µM for 6–24 h followed by their staining with a mix of MitoTracker Red, a fluorescent dye accumulated within mitochondria depending on their ΔψM, and fluorophore-conjugated annexin V, used to visualize apoptotic cells.
[…] cells plated in 6-well plates were treated with 12 at 4 μM for 6, 18 and 24 h and stained using a Mitochondrial Membrane Potential/Annexin V Apoptsis Kit (Molecular Probes, USA) according to the manufacturer’s instructions. Briefly, harvested cells were incubated in Annexin-binding buffer containing MitoTracker Red at 40 nM for 30 min under standard conditions. After that, the cells were washed with PBS, resuspended in Annexin-binding buffer containing 5 µL of Annexin V-Alexa Fluor 488 and incubated at room temperature for 15 min. After the incubation time, the cells were analyzed by flow cytometry. For each sample, 10,000 events were acquired.

U87 cells [2] = test: ROS production, DCFDA; type: cell-based, human; settings: U87, 12 at 4 µM, 24 h
Protocol: (§1) To check the ability of 12 to influence ROS production, U87 cells treated with 12 (4 µM) for 24 h were stained with dichlorodihydrofluorescein diacetate (DCFDA) and analyzed by flow cytometry. […] Since ROS play an important role in the regulation of cell death, we further examined whether ROS production mediated the cytotoxicity of 12 with respect to glioblastoma cells.
Intracellular ROS levels in glioblastoma cells were measured using a DCFDA/H2DCFDA-Cellular ROS Assay Kit (Abcam, Cambridge, UK) according to the manufacturer’s instructions. Briefly, U87 cells were collected by trypsinization and stained with DCFDA at 20 μM for 30 min under standard conditions and seeded in 6-well plates at 2.8 × 10^5 cells/well. Next, the cells were treated with 12 at 4 µM for 24 h, followed by their harvesting and flow cytometry analysis. In total, 10,000 events were recorded for each sample.

U87 cells [3] = test: Cytotoxicity of 12 with N-acetyl-L-cysteine (MTT); type: cell-based; settings: U87, 12 at 4 µM with NAC, 24 h
Protocol: as §1
In order to understand whether ROS play a crucial role in compound 12-induced cell death, U87 cells were plated in quadruplicate in 96-well plates at a density of 1 × 10^4 cells/well and incubated in the presence of 12 at 4 µM and N-Acetyl-L-cysteine (NAC) at […] for 24 h under standard conditions. Then, cell viability was measured using an MTT test.

U87 cells [4] = test: Colony formation assay, U87; type: cell-based, human; settings: for decrease of surface area covered by cell colonies compared to the control: 14 days

CC1(C)C(=O)C(C#N)=C[C@]2(C)C3=CC(=O)[C@@H]4[C@@H]5C[C@@](C)(C(=O)NCCc6c[nH]c7ccccc67)CC[C@]5(C)CC[C@@]4(C)[C@]3(C)CC[C@@H]12 [compound 12]
IC50 (Neuro2a cells): 1.6 ± 0.1 µM | percentage of U118 cells with collapsed ΔψM (U118 cells; 6 h): 7.5% | percentage of U118 cells with collapsed ΔψM (U118 cells; 24 h): 20.4% | JC-1 aggregate/monomer ratios (U118 cells; U118, 12 at 4 µM): significantly reduced | percentage of apoptotic cells with dissipated ΔψM (U87 cells [1]; 6 h): 12.2% | percentage of apoptotic cells with dissipated ΔψM (U87 cells [1]; 18 h): 18.7% | percentage of apoptotic cells with dissipated ΔψM (U87 cells [1]; 24 h): 28% | increase of ROS generation compared to the control (U87 cells [2]): 1.9 fold | effect of NAC on cytotoxic effect of 12 (U87 cells [3]): complete abrogation of the cytotoxic effect | decrease of surface area covered by cell colonies compared to the control (U87 cells [4]; U87, 12 at 200 nM): 2.1 fold | decrease of surface area covered by cell colonies compared to the control (U87 cells [4]; U87, 12 at 500 nM): 2.4 fold | inhibitory effect on clonogenic growth (U87 cells [4]; U87, 12 at 50 and 100 nM): statistically insignificant
